Data from US20230270713A1, “Administration of Resiniferatoxin For Treatment of Bladder Pain or Bladder Cancer” (Sorrento Therapeutics, Inc., priority 2020, published 2023).

Tested on: cats with FIC (Feline Idiopathic Cystitis)
Test: VSOM in cats with Feline Idiopathic Cystitis
Format: in vivo, cat
Conditions: for VSOM treatment failure, number of cats / VSOM treatment failure, percent of cats: Day 28 vs Day 0
[1] = 6.25 μg (0.25 μg/mL), Day 0, n 6
[2] = 6.25 μg (0.25 μg/mL), Day 28, n 6
[3] = 12.5 μg (0.5 μg/mL), Day 0, n 6
[4] = 12.5 μg (0.5 μg/mL), Day 28, n 5
[5] = 12.5 μg (1.25 μg/mL), Day 0, n 6
[6] = 12.5 μg (1.25 μg/mL), Day 28, n 6

With `C=C(C)[C@]12C[C@@H](C)[C@@]34O[C@](Cc5ccccc5)(O[C@@H]1[C@@H]3C=C(COC(=O)Cc1ccc(O)c(OC)c1)C[C@]1(O)C(=O)C(C)=C[C@@H]41)O2` [RTX, resiniferatoxin] the “VSOM, Maximum” value [1] was 12.0, the “VSOM, Mean” value [1] was 10.00 and the “VSOM, Median” value [1] was 10.00. The “VSOM, Minimum” value [1] was 8.0, the “VSOM, Maximum” value [2] was 10.0 and the “VSOM, Mean” value [2] was 6.00. The “VSOM, Median” value [2] was 6.50, the “VSOM, Minimum” value [2] was 1.0 and the “VSOM, Maximum” value [3] was 12.0. For the same compound, the “VSOM, Mean” value [3] was 9.67, the “VSOM, Median” value [3] was 9.50 and the “VSOM, Minimum” value [3] was 8.0. For the same compound, the “VSOM, Maximum” value [4] was 4.0, the “VSOM, Mean” value [4] was 1.60 and the “VSOM, Median” value [4] was 1.00. The “VSOM, Minimum” value [4] was 0.0, the “VSOM, Maximum” value [5] was 10.0 and the “VSOM, Mean” value [5] was 9.83. The “VSOM, Median” value [5] was 10.00, the “VSOM, Minimum” value [5] was 9.0 and the “VSOM, Maximum” value [6] was 6.0. The “VSOM, Mean” value [6] was 3.83, the “VSOM, Median” value [6] was 4.00 and the “VSOM, Minimum” value [6] was 2.0. The “VSOM, Mean” value (25 μg (1 μg/mL), Day 0, n 6) was 10.00, the “VSOM, Median” value (25 μg (1 μg/mL), Day 0, n 6) was 10.00 and the “VSOM, Minimum” value (25 μg (1 μg/mL), Day 0, n 6) was 9.0. The “VSOM, Maximum” value (25 μg (1 μg/mL), Day 28, n 5) was 4.0, the “VSOM, Mean” value (25 μg (1 μg/mL), Day 28, n 5) was 1.80 and the “VSOM, Median” value (25 μg (1 μg/mL), Day 28, n 5) was 1.00. For the same compound, the “VSOM treatment failure, number of cats” value (Cohort 1 25 μg/25 mL) was 0 n, the “VSOM treatment failure, percent of cats” value (Cohort 1 25 μg/25 mL) was 0.0% and the “VSOM treatment failure, number of cats” value (Cohort 2 6.25 μg/25 mL) was 3 n. The “VSOM treatment failure, percent of cats” value (Cohort 2 6.25 μg/25 mL) was 50.0%, the “VSOM treatment failure, number of cats” value (Cohort 3 12.5 μg/25 mL) was 0 n and the “VSOM treatment failure, percent of cats” value (Cohort 3 12.5 μg/25 mL) was 0.0%. For the same compound, the “VSOM treatment failure, number of cats” value (Cohort 4 12.5 μg/10 mL) was 2 n, the “VSOM treatment failure, percent of cats” value (Cohort 4 12.5 μg/10 mL) was 33.3% and the “VSOM treatment failure, percent of cats” value (Overall (Cohorts 1-4)) was “(22.8%)”.
